Data taken from the supplement of paper PMC11061612.

Legend:
MK-2206 = compound: NC1(c2ccc(-c3nc4ccn5c(=O)[nH]nc5c4cc3-c3ccccc3)cc2)CCC1 [MK-2206]; settings: max 10 µM
In short: (§1)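 Cancer cell lines in 1536-well plates (7.5 μl DMEM/F12 or RPMI, 10% FBS) were held 24 hours at 37°C and 5% CO2 and then dosed for 72 hours at a final DMSO of typically 0.2%. Viability was taken from CellTiter-Glo 2.0 luminescence, scaled between blank-well and DMSO-well means. Curves were fitted as two-parameter logistic models with a non-linear mixed effects model, from which the single-agent IC50 was taken.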

AZD2811 = compound: CCN(CCO)CCCOc1ccc2c(Nc3cc(CC(=O)Nc4cccc(F)c4)[nH]n3)ncnc2c1 [AZD2811]; settings: max 1 µM
In short: as §1

AZD5991 = compound: Cc1c2c(nn1C)CSCc1cc(n(C)n1)CSc1cc(c3ccccc3c1)OCCCc1c(C(=O)O)n(C)c3c-2c(Cl)ccc13 [AZD5991]; settings: max 1 µM
In short: as §1

Gefitinib = compound: COc1cc2ncnc(Nc3ccc(F)c(Cl)c3)c2cc1OCCCN1CCOCC1 [Gefitinib]; settings: max 10 µM
In short: as §1

AZD5153 = compound: COc1nnc2ccc(N3CCC(c4ccc(OCCN5CCN(C)C(=O)[C@H]5C)cc4)CC3)nn12 [AZD5153]; settings: max 1 µM
In short: as §1

SN-38 = compound: CCc1c2c(nc3ccc(O)cc13)-c1cc3c(c(=O)n1C2)COC(=O)[C@]3(O)CC [SN-38]; settings: max 0.3 µM
In short: as §1

Lapatinib = compound: CS(=O)(=O)CCNCc1ccc(-c2ccc3ncnc(Nc4ccc(OCc5cccc(F)c5)c(Cl)c4)c3c2)o1 [Lapatinib]; settings: max 10 µM
In short: as §1

Prexasertib = compound: COc1cccc(OCCCN)c1-c1cc(Nc2cnc(C#N)cn2)n[nH]1 [Prexasertib]; settings: max 1 µM
In short: as §1

Doxorubicin = compound: COc1cccc2c1C(=O)c1c(O)c3c(c(O)c1C2=O)C[C@@](O)(C(=O)CO)C[C@@H]3O[C@H]1C[C@H](N)[C@H](O)[C@H](C)O1 [Doxorubicin]; settings: max 1 µM
In short: as §1

AZD7648 = compound: Cc1cc2ncnn2cc1Nc1ncc2c(n1)n(C1CCOCC1)c(=O)n2C [AZD7648]; settings: max 10 µM
In short: as §1

[1] = compound: O=C(Nc1ccc2[nH]nc(-c3ccncc3)c2c1)[C@@H]1CCN(CC(=O)N2CCN(c3ccc(-c4ncccn4)cc3)CC2)C1; settings: max 5 µM
In short: as §1

SRA737 = compound: N#Cc1cnc(Nc2cc(NC[C@H]3CNCCO3)c(C(F)(F)F)cn2)cn1 [SRA737]; settings: max 10 µM
In short: as §1

Gemcitabine = compound: Nc1ccn([C@@H]2O[C@H](CO)[C@@H](O)C2(F)F)c(=O)n1 [Gemcitabine]; settings: max 0.3 µM
In short: as §1

5-Fluorouracil = compound: O=c1[nH]cc(F)c(=O)[nH]1 [5-Fluorouracil]; settings: max 20 µM
In short: as §1

Venetoclax = compound: CC1(C)CCC(CN2CCN(c3ccc(C(=O)NS(=O)(=O)c4ccc(NCC5CCOCC5)c([N+](=O)[O-])c4)c(Oc4cnc5[nH]ccc5c4)c3)CC2)=C(c2ccc(Cl)cc2)C1 [Venetoclax]; settings: max 1 µM
In short: as §1

Dasatinib = compound: CC1=C(C(=CC=C1)Cl)NC(=O)C2=CN=C(S2)NC3=CC(=NC(=N3)C)N4CCN(CC4)CCO [Dasatinib]; settings: max 2 µM
In short: as §1

Crizotinib = compound: C[C@@H](Oc1cc(-c2cnn(C3CCNCC3)c2)cnc1N)c1c(Cl)ccc(F)c1Cl [Crizotinib]; settings: max 10 µM
In short: as §1

Paclitaxel = compound: CC(=O)O[C@H]1C(=O)[C@@]2(C)[C@H]([C@H](OC(=O)c3ccccc3)[C@]3(O)C[C@H](OC(=O)[C@H](O)[C@@H](NC(=O)c4ccccc4)c4ccccc4)C(C)=C1C3(C)C)[C@]1(OC(C)=O)CO[C@@H]1C[C@@H]2O [Paclitaxel]; settings: max 3 µM
In short: as §1

AZD6738 = compound: C[C@@H]1COCCN1C2=NC(=NC(=C2)C3(CC3)[S@](=N)(=O)C)C4=C5C=CNC5=NC=C4 [AZD6738]; settings: max 10 µM
In short: as §1

Taselisib = compound: Cc1nc(-c2cn3c(n2)-c2ccc(-c4cnn(C(C)(C)C(N)=O)c4)cc2OCC3)n(C(C)C)n1 [Taselisib]; settings: max 10 µM
In short: as §1

Etoposide = compound: COc1cc([C@@H]2c3cc4c(cc3[C@@H](O[C@@H]3O[C@@H]5CO[C@@H](C)O[C@H]5[C@H](O)[C@H]3O)[C@H]3COC(=O)[C@H]23)OCO4)cc(OC)c1O [Etoposide]; settings: max 10 µM
In short: as §1

AZD4320 = compound: CN(CC[C@H](CSC1=CC=CC=C1)NC2=C(C=C(C=C2)S(=O)(=O)NC(=O)C3=CC=C(C=C3)N4CCC(CC4)[C@H](C5=CC=CC=C5C6=CC=C(C=C6)Cl)O)S(=O)(=O)C(F)(F)F)CCO [AZD4320]; settings: max 1 µM
In short: as §1

AZD0156 = compound: CN(C)CCCOc1ccc(-c2ccc3ncc4c(c3c2)n(C2CCOCC2)c(=O)n4C)cn1 [AZD0156]; settings: max 3 µM
In short: as §1

Savolitinib = compound: C[C@@H](c1ccc2nccn2c1)n1nnc2ncc(-c3cnn(C)c3)nc21 [Savolitinib]; settings: max 1 µM
In short: as §1

Selumetinib = compound: Cn1cnc2c(F)c(Nc3ccc(Br)cc3Cl)c(C(=O)NOCCO)cc21 [Selumetinib]; settings: max 10 µM
In short: as §1

AZD5363 = compound: C1CN(CCC1(C(=O)N[C@@H](CCO)C2=CC=C(C=C2)Cl)N)C3=NC=NC4=C3C=CN4 [AZD5363]; settings: max 10 µM
In short: as §1

Alisertib = compound: COc1cc(Nc2ncc3c(n2)-c2ccc(Cl)cc2C(c2c(F)cccc2OC)=NC3)ccc1C(=O)O [Alisertib]; settings: max 10 µM
In short: as §1

SG3199 = compound: CC1=CN2[C@@H](C1)C=NC3=CC(=C(C=C3C2=O)OC)OCCCCCOC4=C(C=C5C(=C4)N=C[C@@H]6CC(=CN6C5=O)C)OC [SG3199]; settings: max 0.001 µM
In short: as §1

AZD1390 = compound: CC(C)n1c(=O)n(C)c2cnc3cc(F)c(-c4ccc(OCCCN5CCCCC5)nc4)cc3c21 [AZD1390]; settings: max 0.3 µM
In short: as §1

Trametinib = compound: CC(=O)Nc1cccc(-n2c(=O)n(C3CC3)c(=O)c3c(Nc4ccc(I)cc4F)n(C)c(=O)c(C)c32)c1 [Trametinib]; settings: max 1 µM
In short: as §1

Palbociclib = compound: CC(=O)c1c(C)c2cnc(Nc3ccc(N4CCNCC4)cn3)nc2n(C2CCCC2)c1=O [Palbociclib]; settings: max 10 µM
In short: as §1

AZD8186 = compound: C[C@@H](Nc1cc(F)cc(F)c1)c1cc(C(=O)N(C)C)cc2c(=O)cc(N3CCOCC3)oc12 [AZD8186]
In short: as §1

Carboplatin = compound: C1CC(C1)(C(=O)[O-])C(=O)[O-].N.N.[Pt+2] [Carboplatin]; settings: max 10 µM
In short: as §1

AZD1775 = compound: C=CCn1c(=O)c2cnc(Nc3ccc(N4CCN(C)CC4)cc3)nc2n1-c1cccc(C(C)(C)O)n1 [AZD1775]; settings: max 3 µM
In short: as §1

Olaparib = compound: O=C(c1cc(Cc2n[nH]c(=O)c3ccccc23)ccc1F)N1CCN(C(=O)C2CC2)CC1 [Olaparib]; settings: max 10 µM
In short: as §1

Capivasertib = compound: C1CN(CCC1(C(=O)N[C@@H](CCO)C2=CC=C(C=C2)Cl)N)C3=NC=NC4=C3C=CN4 [Capivasertib]; settings: max 10 µM
In short: as §1

Cell Line | IC50, cell viability 72 h (MK-2206) | IC50, cell viability 72 h (AZD2811) | IC50, cell viability 72 h (AZD5991) | IC50, cell viability 72 h (Gefitinib) | IC50, cell viability 72 h (AZD5153) | IC50, cell viability 72 h (SN-38) | IC50, cell viability 72 h (Lapatinib) | IC50, cell viability 72 h (Prexasertib) | IC50, cell viability 72 h (Doxorubicin) | IC50, cell viability 72 h (AZD7648) | IC50, cell viability 72 h [1] | IC50, cell viability 72 h (SRA737) | IC50, cell viability 72 h (Gemcitabine) | IC50, cell viability 72 h (5-Fluorouracil) | IC50, cell viability 72 h (Venetoclax) | IC50, cell viability 72 h (Dasatinib) | IC50, cell viability 72 h (Crizotinib) | IC50, cell viability 72 h (Paclitaxel) | IC50, cell viability 72 h (AZD6738) | IC50, cell viability 72 h (Taselisib) | IC50, cell viability 72 h (Etoposide) | IC50, cell viability 72 h (AZD4320) | IC50, cell viability 72 h (AZD0156) | IC50, cell viability 72 h (Savolitinib) | IC50, cell viability 72 h (Selumetinib) | IC50, cell viability 72 h (AZD5363) | IC50, cell viability 72 h (Alisertib) | IC50, cell viability 72 h (SG3199) | IC50, cell viability 72 h (AZD1390) | IC50, cell viability 72 h (Trametinib) | IC50, cell viability 72 h (Palbociclib) | IC50, cell viability 72 h (AZD8186; max 10 µM) | IC50, cell viability 72 h (Carboplatin) | IC50, cell viability 72 h (AZD1775) | IC50, cell viability 72 h (Olaparib) | IC50, cell viability 72 h (Capivasertib) | IC50, cell viability 72 h (AZD8186; max 3 µM)
COR-L95 (Small Cell Lung Carcinoma) | > 10 µM | > 1 µM | > 1 µM | > 10 µM | > 1 µM | 0.0149 µM | > 10 µM | 0.123 µM | 0.15 µM | > 10 µM | > 5 µM | > 10 µM | > 0.3 µM | > 20 µM | 0.392 µM | > 2 µM | > 10 µM | > 3 µM | > 10 µM | > 10 µM | > 10 µM | 0.00732 µM | > 3 µM | > 1 µM | > 10 µM | > 10 µM | > 10 µM | > 0.001 µM | > 0.3 µM | > 1 µM | > 10 µM | > 10 µM | > 10 µM | > 3 µM | > 10 µM | – | –
KM-H2 (Hodgkin's Lymphoma) | > 10 µM | > 1 µM | > 1 µM | > 10 µM | > 1 µM | 0.0488 µM | > 10 µM | 0.0291 µM | 0.534 µM | > 10 µM | – | – | – | – | > 1 µM | > 2 µM | > 10 µM | – | 4.62 µM | > 10 µM | – | > 1 µM | > 3 µM | > 1 µM | > 10 µM | – | > 10 µM | > 0.001 µM | > 0.3 µM | > 1 µM | > 10 µM | – | – | 0.615 µM | > 10 µM | > 10 µM | > 3 µM
NCI-H211 (Small Cell Lung Carcinoma) | > 10 µM | 0.0195 µM | 0.307 µM | > 10 µM | 0.0302 µM | 0.00231 µM | 8.54 µM | – | – | > 10 µM | > 5 µM | > 10 µM | 0.00872 µM | > 20 µM | 0.113 µM | > 2 µM | 1.92 µM | < 0.003 µM | 5.99 µM | > 10 µM | 0.342 µM | 0.0233 µM | > 3 µM | > 1 µM | > 10 µM | 9.9 µM | – | – | > 0.3 µM | > 1 µM | 6.13 µM | > 10 µM | > 10 µM | 0.628 µM | 3.58 µM | – | –
